Measured values: patent publication US8178077B2, “Drug development target protein and target gene, and method of screening” (Reverse Proteomics Research Institute Co., Ltd., priority 2004, dated 2012)

Experiments:
[1] = molecular target: T1, FLJ39196 clone-derived protein (human neurocalcin δ) (Homo sapiens, UniProt P61601); assay: SEC/MS interaction analysis (size exclusion spin column and mass analysis) with FLJ39196 clone-derived protein; type: binding
T1 construct: A human full-length cDNA clone was expressed as a protein with an N-terminal His tag; His tag (N); made in house; host or cells: Escherichia coli BL21star(DE3)pLysS (pDEST17 Gateway expression plasmid)
Excerpt: To analyze the interactions between commonly used drugs and proteins expressed from human full-length cDNA clones while keeping both the proteins and the compounds in non-modified, non-immobilized state, size exclusion chromatography (SEC) and mass analysis were used in combination (FIGS. 1, 2). The specific procedures are shown below.
The compound-protein mixture prepared in step 1 was subjected to chromatography using an SEC column, the compound and the protein were separated by SEC, and the compound that interacted with the bound compound or protein contained in the protein fraction was analyzed using a mass analyzer.
Protein concentrations were measured using BCA Protein Assay (PIERCE), in consideration of the purity calculated by SDS-PAGE.
Mass analysis was performed using LCQ DECA XP (Thermoelectron) or Q-TOFmicro (Micromass), equipped with an ESI probe. The LC pump used was Agilent 1100 (Yokogawa Analytical Systems), and the autosampler used was HTC-PAL (CTC Analytics) equipped with a cooling stacker.
In the SEC method using 384-well spin columns, Unifilter 100 (Whatman), packed with 10 μL (dry volume) of Bio-Gel P6 (BIO-RAD) and swollen with milliQ water, was used as the SEC column. 13.3 μL of a protein-free reference standard or a 25 μM protein standard and 0.7 μL of a multiplied liquid comprising 25 μM of each pharmaceutical compound (5% DMSO aqueous solution) were mixed; 9 μL of this mixture was aliquoted into the SEC spin columns. The SEC spin column was mounted on an acetonitrile-aliquoted 384-well U-bottom plate and centrifuged; the SEC spin column filtrate, which is a protein fraction, was retrieved in 50% acetonitrile. The protein precipitate produced by the acetonitrile was removed via centrifugation and filtration for deproteinization; the resulting filtrate was concentrated by centrifugation and re-dissolved in 10 μL of 50% methanol to obtain a mass analysis sample. The mobile phase supplied to the mass analyzer was 0.1% formic acid/50% methanol solution in the positive ion mode, and 0.1% ammonia/50% methanol solution in the negative ion mode; these mobile phases were used at a flow rate of 40 μL/min. 2-μL of mass analysis samples were injected using an autosampler at 2-minute intervals; the mass spectral intensity of the compound was measured to obtain the spectral intensity of the pharmaceutical compound contained in the SEC spin column filtrate (protein fraction eluted from SEC).

[2] = molecular target: T2, FLJ20589 clone-derived protein (human hippocalcin-like protein 1, VILIP-3) (Homo sapiens, UniProt P37235); assay: SEC/MS interaction analysis (size exclusion spin column and mass analysis) with FLJ20589 clone-derived protein; type: binding
T2 construct: A human full-length cDNA clone was expressed as a protein with an N-terminal His tag; His tag (N); made in house; host or cells: Escherichia coli BL21star(DE3)pLysS (pDEST17 Gateway expression plasmid)

[3] = protein 0 μM (protein-free reference), compound 1 μM
[4] = protein 0 μM (protein-free reference), compound 10 μM
[5] = protein 0 μM (protein-free reference), compound 100 μM
[6] = protein 0 μM (protein-free reference), compound 250 μM
[7] = protein 23.75 μM, compound 1 μM
[8] = protein 23.75 μM, compound 10 μM
[9] = protein 23.75 μM, compound 100 μM
[10] = protein 23.75 μM, compound 250 μM
[11] = protein 47.5 μM, compound 10 μM
[12] = protein 47.5 μM, compound 100 μM
[13] = protein 47.5 μM, compound 250 μM

c1ccc(-c2ccc(C(c3ccccc3)n3ccnc3)cc2)cc1 (centres unmarked) [Bifonazole]
spectral intensity of the compound in the SEC spin column filtrate (protein fraction) [1, 3]: 32068857
spectral intensity of the compound in the SEC spin column filtrate (protein fraction) [1, 4]: 34579053
spectral intensity of the compound in the SEC spin column filtrate (protein fraction) [1, 5]: 30705006
spectral intensity of the compound in the SEC spin column filtrate (protein fraction) [1, 6]: 32278650
spectral intensity of the compound in the SEC spin column filtrate (protein fraction) [1, 7]: 27516354
spectral intensity of the compound in the SEC spin column filtrate (protein fraction) [1, 8]: 30253800
spectral intensity of the compound in the SEC spin column filtrate (protein fraction) [1, 9]: 60323012
spectral intensity of the compound in the SEC spin column filtrate (protein fraction) [1, 10]: 85169446
spectral intensity of the compound in the SEC spin column filtrate (protein fraction) ([1]; protein 47.5 μM, compound 1 μM): 33844567
spectral intensity of the compound in the SEC spin column filtrate (protein fraction) [1, 11]: 38342358
spectral intensity of the compound in the SEC spin column filtrate (protein fraction) [1, 12]: 152159135
spectral intensity of the compound in the SEC spin column filtrate (protein fraction) [1, 13]: 322219706
spectral intensity of the compound in the SEC spin column filtrate (protein fraction) [2, 3]: 2704636
spectral intensity of the compound in the SEC spin column filtrate (protein fraction) [2, 4]: 2935358
spectral intensity of the compound in the SEC spin column filtrate (protein fraction) [2, 5]: 2558136
spectral intensity of the compound in the SEC spin column filtrate (protein fraction) [2, 6]: 3779926
spectral intensity of the compound in the SEC spin column filtrate (protein fraction) [2, 7]: 2343078
spectral intensity of the compound in the SEC spin column filtrate (protein fraction) [2, 8]: 2189489
spectral intensity of the compound in the SEC spin column filtrate (protein fraction) [2, 9]: 3826699
spectral intensity of the compound in the SEC spin column filtrate (protein fraction) [2, 10]: 3607174
spectral intensity of the compound in the SEC spin column filtrate (protein fraction) ([2]; protein 47.5 μM, compound 1 μM): 1367901
spectral intensity of the compound in the SEC spin column filtrate (protein fraction) [2, 11]: 2513645
spectral intensity of the compound in the SEC spin column filtrate (protein fraction) [2, 12]: 8024232
spectral intensity of the compound in the SEC spin column filtrate (protein fraction) [2, 13]: 28949362

Fc1ccc(C(c2ccc(F)cc2)N2CCN(C/C=C/c3ccccc3)CC2)cc1 [Flunarizine]
spectral intensity of the compound in the SEC spin column filtrate (protein fraction) [2, 3]: 188851
spectral intensity of the compound in the SEC spin column filtrate (protein fraction) [2, 4]: 200579
spectral intensity of the compound in the SEC spin column filtrate (protein fraction) [2, 5]: 198757
spectral intensity of the compound in the SEC spin column filtrate (protein fraction) [2, 6]: 253795
spectral intensity of the compound in the SEC spin column filtrate (protein fraction) [2, 7]: 501950
spectral intensity of the compound in the SEC spin column filtrate (protein fraction) [2, 8]: 137693
spectral intensity of the compound in the SEC spin column filtrate (protein fraction) [2, 9]: 181386
spectral intensity of the compound in the SEC spin column filtrate (protein fraction) [2, 10]: 308575
spectral intensity of the compound in the SEC spin column filtrate (protein fraction) ([2]; protein 47.5 μM, compound 1 μM): 58869
spectral intensity of the compound in the SEC spin column filtrate (protein fraction) [2, 11]: 178128
spectral intensity of the compound in the SEC spin column filtrate (protein fraction) [2, 12]: 2683794
spectral intensity of the compound in the SEC spin column filtrate (protein fraction) [2, 13]: 9317332

Dihydroergotoxine mesylate
spectral intensity of the compound in the SEC spin column filtrate (protein fraction) ([1]; measured mass range m/z 564.1-565.1, protein 0 μM (protein-free reference), compound 1 μM): 25150786
spectral intensity of the compound in the SEC spin column filtrate (protein fraction) ([1]; measured mass range m/z 564.1-565.1, protein 0 μM (protein-free reference), compound 10 μM): 29311635
spectral intensity of the compound in the SEC spin column filtrate (protein fraction) ([1]; measured mass range m/z 564.1-565.1, protein 0 μM (protein-free reference), compound 100 μM): 76261189
spectral intensity of the compound in the SEC spin column filtrate (protein fraction) ([1]; measured mass range m/z 564.1-565.1, protein 0 μM (protein-free reference), compound 250 μM): 326128137
spectral intensity of the compound in the SEC spin column filtrate (protein fraction) ([1]; measured mass range m/z 564.1-565.1, protein 23.75 μM, compound 1 μM): 19680823
spectral intensity of the compound in the SEC spin column filtrate (protein fraction) ([1]; measured mass range m/z 564.1-565.1, protein 23.75 μM, compound 10 μM): 36914079
spectral intensity of the compound in the SEC spin column filtrate (protein fraction) ([1]; measured mass range m/z 564.1-565.1, protein 23.75 μM, compound 100 μM): 177369018
spectral intensity of the compound in the SEC spin column filtrate (protein fraction) ([1]; measured mass range m/z 564.1-565.1, protein 23.75 μM, compound 250 μM): 232715490
spectral intensity of the compound in the SEC spin column filtrate (protein fraction) ([1]; measured mass range m/z 564.1-565.1, protein 47.5 μM, compound 1 μM): 16556794
spectral intensity of the compound in the SEC spin column filtrate (protein fraction) ([1]; measured mass range m/z 564.1-565.1, protein 47.5 μM, compound 10 μM): 45033425
spectral intensity of the compound in the SEC spin column filtrate (protein fraction) ([1]; measured mass range m/z 564.1-565.1, protein 47.5 μM, compound 100 μM): 221983211
spectral intensity of the compound in the SEC spin column filtrate (protein fraction) ([1]; measured mass range m/z 564.1-565.1, protein 47.5 μM, compound 250 μM): 530510575
spectral intensity of the compound in the SEC spin column filtrate (protein fraction) ([1]; measured mass range m/z 577.9-578.9, protein 0 μM (protein-free reference), compound 1 μM): 17036968
spectral intensity of the compound in the SEC spin column filtrate (protein fraction) ([1]; measured mass range m/z 577.9-578.9, protein 0 μM (protein-free reference), compound 10 μM): 25343556
spectral intensity of the compound in the SEC spin column filtrate (protein fraction) ([1]; measured mass range m/z 577.9-578.9, protein 0 μM (protein-free reference), compound 100 μM): 62894601
spectral intensity of the compound in the SEC spin column filtrate (protein fraction) ([1]; measured mass range m/z 577.9-578.9, protein 0 μM (protein-free reference), compound 250 μM): 234871658
spectral intensity of the compound in the SEC spin column filtrate (protein fraction) ([1]; measured mass range m/z 577.9-578.9, protein 23.75 μM, compound 1 μM): 25890358
spectral intensity of the compound in the SEC spin column filtrate (protein fraction) ([1]; measured mass range m/z 577.9-578.9, protein 23.75 μM, compound 100 μM): 421344902
spectral intensity of the compound in the SEC spin column filtrate (protein fraction) ([1]; measured mass range m/z 577.9-578.9, protein 23.75 μM, compound 250 μM): 408003600
spectral intensity of the compound in the SEC spin column filtrate (protein fraction) ([1]; measured mass range m/z 577.9-578.9, protein 47.5 μM, compound 1 μM): 31988946
spectral intensity of the compound in the SEC spin column filtrate (protein fraction) ([1]; measured mass range m/z 577.9-578.9, protein 47.5 μM, compound 10 μM): 207450982
spectral intensity of the compound in the SEC spin column filtrate (protein fraction) ([1]; measured mass range m/z 577.9-578.9, protein 47.5 μM, compound 100 μM): 908698063
spectral intensity of the compound in the SEC spin column filtrate (protein fraction) ([1]; measured mass range m/z 577.9-578.9, protein 47.5 μM, compound 250 μM): 1265975868
spectral intensity of the compound in the SEC spin column filtrate (protein fraction) ([1]; measured mass range m/z 611.7-612.7, protein 0 μM (protein-free reference), compound 1 μM): 18486648
spectral intensity of the compound in the SEC spin column filtrate (protein fraction) ([1]; measured mass range m/z 611.7-612.7, protein 0 μM (protein-free reference), compound 10 μM): 24024699
spectral intensity of the compound in the SEC spin column filtrate (protein fraction) ([1]; measured mass range m/z 611.7-612.7, protein 0 μM (protein-free reference), compound 100 μM): 30737736
spectral intensity of the compound in the SEC spin column filtrate (protein fraction) ([1]; measured mass range m/z 611.7-612.7, protein 0 μM (protein-free reference), compound 250 μM): 58888872
spectral intensity of the compound in the SEC spin column filtrate (protein fraction) ([1]; measured mass range m/z 611.7-612.7, protein 23.75 μM, compound 1 μM): 35126832
spectral intensity of the compound in the SEC spin column filtrate (protein fraction) ([1]; measured mass range m/z 611.7-612.7, protein 23.75 μM, compound 10 μM): 106708813
spectral intensity of the compound in the SEC spin column filtrate (protein fraction) ([1]; measured mass range m/z 611.7-612.7, protein 23.75 μM, compound 100 μM): 397014202
spectral intensity of the compound in the SEC spin column filtrate (protein fraction) ([1]; measured mass range m/z 611.7-612.7, protein 23.75 μM, compound 250 μM): 267260198
spectral intensity of the compound in the SEC spin column filtrate (protein fraction) ([1]; measured mass range m/z 611.7-612.7, protein 47.5 μM, compound 1 μM): 40595551
spectral intensity of the compound in the SEC spin column filtrate (protein fraction) ([1]; measured mass range m/z 611.7-612.7, protein 47.5 μM, compound 10 μM): 194133547
spectral intensity of the compound in the SEC spin column filtrate (protein fraction) ([1]; measured mass range m/z 611.7-612.7, protein 47.5 μM, compound 100 μM): 931095764
spectral intensity of the compound in the SEC spin column filtrate (protein fraction) ([1]; measured mass range m/z 611.7-612.7, protein 47.5 μM, compound 250 μM): 1112309560
